In experiment [1] the target is T1, Neuronal acetylcholine receptor; alpha3/beta4 (Homo sapiens, UniProt P30926+P32297). As to the kind of experiment: Agonist activity at human alpha3beta4 nAChR expressed in CHO cells assessed as calcium flux by calcium4-based FLIPR assay relative to nicotine. Type of experiment: functional, cell-based.
Experiment [2] addresses T1, Neuronal acetylcholine receptor; alpha3/beta4. Description: Displacement of [3H]epibatidine from human alpha3beta4 nAChR expressed in CHO cells after 2 hrs by liquid scintillation counting. Type of experiment: cell-based.
Experiment [3] addresses Neuronal acetylcholine receptor subunit alpha-7 (Homo sapiens, UniProt P36544). As to the kind of experiment: Displacement of [3H]epibatidine from human alpha7 nAChR expressed in CHO cells after 2 hrs by liquid scintillation counting. Type of experiment: cell-based.
In experiment [4] the target is T2, Neuronal acetylcholine receptor; alpha4/beta2 (Homo sapiens, UniProt P17787+P43681). Description: Displacement of [3H]nicotine from alpha4beta2 nAChR in human SH-EP1 cells after 2 hrs by liquid scintillation assay. Format: cell-based.
Experiment [5] concerns the target T1, Neuronal acetylcholine receptor; alpha3/beta4. Description: Agonist activity at human alpha3beta4 nAChR expressed in CHO cells assessed as calcium flux by calcium4-based FLIPR assay. Format: functional, cell-based.
Experiment [6] concerns the target T2, Neuronal acetylcholine receptor; alpha4/beta2. Description: Partial agonist activity at alpha4beta2 nAChR in human SH-EP1 cells assessed as calcium flux by calcium4-based FLIPR assay relative to nicotine. Format: functional, cell-based.
Experiment [7] shares this target. Description: Partial agonist activity at alpha4beta2 nAChR in human SH-EP1 cells assessed as calcium flux by calcium4-based FLIPR assay. Format: functional, cell-based.
For experiment [8], the target named is Neuronal acetylcholine receptor; alpha4/beta2 (Rattus norvegicus, UniProt P09483+P12390). Description: Displacement of [3H]epibatidine from alpha4beta2 nAChR in Sprague-Dawley rat cortex after 2 hrs by liquid scintillation counting.
Experiment [9] has as its target T2, Neuronal acetylcholine receptor; alpha4/beta2. Description: Agonist activity at alpha4beta2 nAChR in human SH-EP1 cells assessed as calcium flux by calcium4-based FLIPR assay relative to nicotine. Type of experiment: functional, cell-based.
The target is the same in experiment [10]. Description: Agonist activity at alpha4beta2 nAChR in human SH-EP1 cells assessed as calcium flux by calcium4-based FLIPR assay. Format: functional, cell-based.

This note sets out measurements from ChEMBL document CHEMBL2176988 (J Med Chem, 2012).

A value given as a limit tells only on which side of the number the result lay.

T2 sequence (P17787 whole entry): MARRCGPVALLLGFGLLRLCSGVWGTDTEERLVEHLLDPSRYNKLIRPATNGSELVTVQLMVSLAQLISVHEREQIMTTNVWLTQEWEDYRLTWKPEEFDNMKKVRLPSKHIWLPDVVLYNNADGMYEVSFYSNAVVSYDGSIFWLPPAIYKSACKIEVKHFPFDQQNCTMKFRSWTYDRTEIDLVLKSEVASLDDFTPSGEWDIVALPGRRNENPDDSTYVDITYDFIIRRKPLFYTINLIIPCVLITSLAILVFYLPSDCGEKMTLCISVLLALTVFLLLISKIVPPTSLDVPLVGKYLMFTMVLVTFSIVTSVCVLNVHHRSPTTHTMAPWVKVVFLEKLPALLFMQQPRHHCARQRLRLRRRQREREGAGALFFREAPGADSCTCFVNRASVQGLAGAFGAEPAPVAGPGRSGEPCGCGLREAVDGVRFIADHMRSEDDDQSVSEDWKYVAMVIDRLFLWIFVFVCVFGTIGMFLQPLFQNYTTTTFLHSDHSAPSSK
T2 sequence (P43681 whole entry): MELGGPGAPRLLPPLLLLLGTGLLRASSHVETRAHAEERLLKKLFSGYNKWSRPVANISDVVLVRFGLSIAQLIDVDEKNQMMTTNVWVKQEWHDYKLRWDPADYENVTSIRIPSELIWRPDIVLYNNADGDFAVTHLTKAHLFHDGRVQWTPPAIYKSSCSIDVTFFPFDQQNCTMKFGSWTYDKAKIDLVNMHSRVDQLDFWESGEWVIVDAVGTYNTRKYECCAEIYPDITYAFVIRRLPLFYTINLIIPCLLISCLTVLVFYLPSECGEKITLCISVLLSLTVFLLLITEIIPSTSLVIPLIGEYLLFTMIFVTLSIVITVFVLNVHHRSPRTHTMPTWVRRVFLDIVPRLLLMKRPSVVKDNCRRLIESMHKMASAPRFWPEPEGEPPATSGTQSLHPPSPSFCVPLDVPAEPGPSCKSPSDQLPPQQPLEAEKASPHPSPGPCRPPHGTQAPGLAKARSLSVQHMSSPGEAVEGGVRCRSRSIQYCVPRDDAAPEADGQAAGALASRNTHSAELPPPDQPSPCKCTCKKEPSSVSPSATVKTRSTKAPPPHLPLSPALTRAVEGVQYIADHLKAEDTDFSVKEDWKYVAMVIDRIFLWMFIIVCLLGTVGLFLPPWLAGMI
Chain of Neuronal acetylcholine receptor; alpha4/beta2 (Rattus norvegicus, UniProt P09483+P12390) (P09483 whole entry): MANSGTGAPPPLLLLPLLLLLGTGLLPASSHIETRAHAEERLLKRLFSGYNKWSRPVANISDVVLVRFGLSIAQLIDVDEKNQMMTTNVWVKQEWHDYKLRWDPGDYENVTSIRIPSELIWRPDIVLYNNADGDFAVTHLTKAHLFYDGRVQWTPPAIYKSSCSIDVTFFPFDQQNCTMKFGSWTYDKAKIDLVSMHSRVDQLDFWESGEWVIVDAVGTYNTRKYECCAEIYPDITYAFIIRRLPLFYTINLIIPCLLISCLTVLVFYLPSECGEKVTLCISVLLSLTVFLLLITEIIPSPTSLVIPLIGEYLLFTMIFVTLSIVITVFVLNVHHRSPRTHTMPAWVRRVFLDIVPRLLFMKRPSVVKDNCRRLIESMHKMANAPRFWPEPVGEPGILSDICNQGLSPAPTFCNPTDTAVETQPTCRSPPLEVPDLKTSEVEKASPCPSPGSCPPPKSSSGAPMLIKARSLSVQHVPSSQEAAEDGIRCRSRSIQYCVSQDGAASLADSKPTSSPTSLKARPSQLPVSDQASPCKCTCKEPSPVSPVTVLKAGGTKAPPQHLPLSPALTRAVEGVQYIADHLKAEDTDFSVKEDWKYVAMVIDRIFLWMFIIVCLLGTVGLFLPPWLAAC
Chain of Neuronal acetylcholine receptor; alpha4/beta2 (Rattus norvegicus, UniProt P09483+P12390) (P12390 whole entry): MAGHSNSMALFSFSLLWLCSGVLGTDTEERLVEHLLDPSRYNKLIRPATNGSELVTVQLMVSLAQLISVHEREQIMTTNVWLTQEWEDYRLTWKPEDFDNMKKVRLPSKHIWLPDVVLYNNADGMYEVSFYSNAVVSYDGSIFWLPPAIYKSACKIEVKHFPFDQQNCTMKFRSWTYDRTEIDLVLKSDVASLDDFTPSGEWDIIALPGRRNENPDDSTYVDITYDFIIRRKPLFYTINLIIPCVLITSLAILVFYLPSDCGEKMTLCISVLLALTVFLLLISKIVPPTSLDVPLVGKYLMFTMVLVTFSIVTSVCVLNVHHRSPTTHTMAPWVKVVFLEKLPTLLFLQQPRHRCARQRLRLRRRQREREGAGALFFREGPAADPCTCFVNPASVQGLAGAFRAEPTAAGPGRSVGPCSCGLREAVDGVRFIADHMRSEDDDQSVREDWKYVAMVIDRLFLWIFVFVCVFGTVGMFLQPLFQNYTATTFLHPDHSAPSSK
T1 sequence (P30926 whole entry): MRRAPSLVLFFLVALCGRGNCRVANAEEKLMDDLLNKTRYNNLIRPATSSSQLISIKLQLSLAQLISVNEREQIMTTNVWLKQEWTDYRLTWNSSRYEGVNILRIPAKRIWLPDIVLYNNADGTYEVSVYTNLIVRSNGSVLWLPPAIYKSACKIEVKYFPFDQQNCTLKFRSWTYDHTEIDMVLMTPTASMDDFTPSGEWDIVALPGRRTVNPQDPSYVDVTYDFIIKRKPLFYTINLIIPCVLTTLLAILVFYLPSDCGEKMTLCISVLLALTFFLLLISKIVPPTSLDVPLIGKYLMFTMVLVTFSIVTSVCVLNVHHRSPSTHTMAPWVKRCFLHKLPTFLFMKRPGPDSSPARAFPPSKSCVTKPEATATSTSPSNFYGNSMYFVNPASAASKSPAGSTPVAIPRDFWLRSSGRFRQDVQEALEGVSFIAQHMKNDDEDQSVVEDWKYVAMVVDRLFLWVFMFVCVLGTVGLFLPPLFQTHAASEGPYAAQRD
T1 sequence (P32297 whole entry): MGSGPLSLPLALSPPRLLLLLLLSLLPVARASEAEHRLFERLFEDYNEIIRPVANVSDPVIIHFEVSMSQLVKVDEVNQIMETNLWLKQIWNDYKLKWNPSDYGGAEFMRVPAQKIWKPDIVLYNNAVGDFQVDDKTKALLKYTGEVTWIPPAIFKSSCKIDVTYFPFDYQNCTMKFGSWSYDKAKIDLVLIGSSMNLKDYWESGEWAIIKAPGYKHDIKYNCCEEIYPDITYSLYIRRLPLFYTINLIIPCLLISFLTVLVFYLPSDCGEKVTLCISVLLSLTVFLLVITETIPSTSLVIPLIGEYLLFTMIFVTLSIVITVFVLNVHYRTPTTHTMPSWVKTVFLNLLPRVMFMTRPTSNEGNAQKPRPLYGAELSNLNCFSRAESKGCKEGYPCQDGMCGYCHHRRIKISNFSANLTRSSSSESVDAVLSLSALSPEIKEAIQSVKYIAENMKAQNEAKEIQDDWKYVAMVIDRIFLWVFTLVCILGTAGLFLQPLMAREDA
Chain of Neuronal acetylcholine receptor subunit alpha-7 (P36544 whole entry): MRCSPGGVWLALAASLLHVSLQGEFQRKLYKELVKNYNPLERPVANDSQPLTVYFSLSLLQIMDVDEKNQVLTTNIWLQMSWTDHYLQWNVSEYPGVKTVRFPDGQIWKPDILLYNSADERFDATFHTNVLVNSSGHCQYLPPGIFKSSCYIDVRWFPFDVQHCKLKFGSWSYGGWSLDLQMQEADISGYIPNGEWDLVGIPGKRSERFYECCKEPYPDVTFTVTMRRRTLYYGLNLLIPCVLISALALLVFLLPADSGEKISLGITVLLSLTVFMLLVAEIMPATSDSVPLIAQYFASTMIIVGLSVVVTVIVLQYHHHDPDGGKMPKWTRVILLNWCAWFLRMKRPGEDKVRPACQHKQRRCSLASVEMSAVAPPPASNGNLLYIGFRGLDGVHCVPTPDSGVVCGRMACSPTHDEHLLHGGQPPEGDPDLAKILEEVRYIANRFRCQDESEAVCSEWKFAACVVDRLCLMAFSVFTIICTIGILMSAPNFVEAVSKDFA

As for `N#Cc1coc(C(=O)N2CC3CNCC(C3)C2)c1`, the Emax in experiment [1] is 19%; in experiment [6] it was 20%. The Ki in experiment [2] was > 10 µM; in experiment [3] it was > 10 µM; in [4], 0.033 µM. Further, the EC50 in experiment [5] is 35 µM; in experiment [7], 110 µM.
For `O=C(c1cc(Cl)co1)N1CC2CNCC(C2)C1`, the Emax is 27% in experiment [1] and 11% in experiment [6]. In addition, the Ki in experiment [2] is 6.6 µM; in experiment [3], > 10 µM; in experiment [4], 0.005 µM; in [8], 0.04 µM. Also, the figures for the EC50 in experiment [5] and in experiment [7] were 54 µM and 100 µM, respectively.
Regarding `O=C(c1occc1F)N1CC2CNCC(C2)C1`, the Emax in experiment [1] turned out to be 54%; in [6], 15%. For the same molecule, the Ki in [2] is > 10 µM; in experiment [3] it was > 10 µM; in [4], 0.05 µM; in [8] it was 0.21 µM. In addition, the EC50 was 32 µM in experiment [5] and 22 µM in experiment [7].
For `N#Cc1ccc(C(=O)N2CC3CNCC(C3)C2)o1`, the figures for the Emax in experiment [1] and in [6] were 64% and 58%, respectively. For the same molecule, the Ki was 21 µM in experiment [2], > 10 µM in experiment [3], 0.008 µM in [4] and 0.078 µM in experiment [8]. Besides, the results for the EC50 in experiment [5] and in [7] were 34 µM and 7.1 µM, respectively.
Consider `O=C(c1cc(F)co1)N1CC2CNCC(C2)C1`, for which the Emax in experiment [1] came to 93%; in experiment [6], 66%. Besides, the Ki is 3.2 µM in [2], > 10 µM in [3] and 0.022 µM in experiment [4]. For the same molecule, the EC50 in experiment [5] is 22 µM; in experiment [7] it was 0.8 µM.
Take `Cc1ccoc1C(=O)N1CC2CNCC(C2)C1`: the values for the Emax in experiment [1] and in experiment [6] were 11% and 9%, respectively. For the same molecule, the Ki in experiment [2] is > 10 µM; in experiment [3] it was > 10 µM; in experiment [4], 0.19 µM; in experiment [8], 0.65 µM. Further, the EC50 in [5] and in experiment [7] was 25 µM in each case.
Turning to `O=C(c1occc1Br)N1CC2CNCC(C2)C1`, the maximal response (Emax) came to 20% in [1] and 8% in experiment [6]. The Ki is 6.5 µM in [2], > 10 µM in experiment [3], 0.023 µM in experiment [4] and 0.13 µM in experiment [8]. Besides, the EC50 in experiment [5] is 24 µM; in experiment [7], 8.6 µM.
In the case of `COc1ccc(C(=O)N2CC3CNCC3C2)cc1` (stereo unspecified), the Emax in experiment [1] was 22%; in experiment [9], 9%. Besides, the Ki in experiment [2] was 8.4 µM; in [3], 100 µM; in experiment [4] it was 0.026 µM; in experiment [8], 0.14 µM. Besides, the EC50 in experiment [5] was found to be 31 µM; in experiment [10], 43 µM.
For the molecule `O=C(c1ccno1)N1CC2CNCC2C1` (stereo unspecified), the Emax was 17% in experiment [1] and 150% in experiment [9]. For the same molecule, the Ki in experiment [2] was determined as 7.1 µM; in [3], 19 µM; in experiment [4], 0.049 µM; in experiment [8], 0.047 µM. Besides, the EC50 turned out to be 66 µM in experiment [5] and 6.8 µM in [10].
As for `O=C(c1ccccn1)N1CC2CNCC2C1` (stereo unspecified), the Emax in [1] was found to be 3%; in experiment [9], 44%. For the same molecule, the Ki was found to be 21 µM in experiment [2], 100 µM in experiment [3], 0.25 µM in experiment [4] and 0.34 µM in [8]. Also, the EC50 in [5] is 51 µM; in experiment [10], 34 µM.
Regarding `O=C(c1ccco1)N1C[C@@H]2CN[C@H](C2)C1`, the Emax in experiment [1] is 130%; in [9], 36%. Besides, the Ki in [2] worked out at 0.45 µM; in experiment [3] it was 5.5 µM; in [4] it was 0.013 µM; in [8], 0.011 µM. The values for the EC50 in experiment [5] and in experiment [10] were 15 µM and 7.4 µM, respectively.
In the case of `O=C(c1ccc(F)o1)N1C[C@@H]2CN[C@H](C2)C1`, the Emax in [1] and in experiment [9] was 110% throughout. Besides, the Ki in [2] amounted to 0.9 µM; in experiment [3] it was 14 µM; in [4] it was 0.005 µM; in [8], 0.017 µM. In addition, the EC50 is 6.9 µM in experiment [5] and 2.1 µM in experiment [10].
Regarding `N#Cc1ccoc1C(=O)N1CC2CNCC2C1` (stereo unspecified), the Emax in experiment [1] was 96%; in experiment [9], 76%. The Ki worked out at 3.2 µM in [2], 8.8 µM in experiment [3], 0.013 µM in experiment [4] and 0.068 µM in experiment [8]. Also, the EC50 in experiment [5] amounted to 22 µM; in experiment [10] it was 100 µM.
Turning to `O=C(c1ccccc1)N1CC2CNCC(C2)C1`, the Emax in [1] and in [9] was 8% each time. The Ki in experiment [2] worked out at 100 µM; in [3], 34 µM; in experiment [4] it was 0.92 µM; in [8], 1.7 µM. Moreover, the EC50 in experiment [5] came to 28 µM; in [10] it was 100 µM.
On to `O=C(c1cc(Br)co1)N1CC2CNCC2C1` (stereo unspecified), for which the figures for the Emax in [1] and in experiment [9] were 45% and 15%, respectively. Besides, the Ki in experiment [2] came out at 7.7 µM; in experiment [3], 4.6 µM; in experiment [4] it was 0.016 µM; in experiment [8], 0.091 µM. Moreover, the EC50 was determined as 36 µM in experiment [5] and 6.5 µM in experiment [10].
As to `O=C(c1ccco1)N1C[C@H]2CN[C@@H](C2)C1`, the Emax is 120% in experiment [1] and 83% in experiment [9]. The Ki in experiment [2] amounted to 1.7 µM; in experiment [3], 0.56 µM; in experiment [4] it was 0.015 µM; in experiment [8], 0.097 µM. The EC50 in experiment [5] was 17 µM; in [10], 4.7 µM.
Regarding `O=C(c1cc(Cl)co1)N1CC2CNCC2C1` (stereo unspecified), the figures for the maximal effect (Emax) in experiment [1] and in experiment [9] were 53% and 39%, respectively. The Ki was 7.1 µM in [2], > 10 µM in experiment [3], 0.011 µM in [4] and 0.065 µM in [8]. In addition, the EC50 in [5] was 56 µM; in experiment [10], 11 µM.
Take `O=C(c1occc1F)N1CC2CNCC2C1` (stereo unspecified): the Emax in experiment [1] turned out to be 35%; in [9], 96%. For the same molecule, the Ki in [2] was 6.5 µM; in experiment [3], > 10 µM; in experiment [4], 0.023 µM; in experiment [8] it was 0.054 µM. In addition, the results for the EC50 in [5] and in [10] were 44 µM and 4.8 µM, respectively.
Consider `O=C(c1ccncc1)N1CC2CNCC(C2)C1`, for which the Emax in experiment [1] stood at 6%; in experiment [9], 7%. Also, the Ki was > 10 µM in [2], > 10 µM in experiment [3], 0.037 µM in [4] and 0.057 µM in experiment [8]. Also, the EC50 in experiment [5] is 54 µM; in experiment [10], 19 µM.
Take `O=C(c1ccco1)N1CC2CNCC(C2)C1`: the Emax came to 57% in [1] and 65% in experiment [9]. Moreover, the Ki worked out at 8.1 µM in experiment [2], 8.2 µM in experiment [3], 0.02 µM in [4] and 0.029 µM in [8]. Besides, the results for the EC50 in experiment [5] and in experiment [10] were 43 µM and 1.9 µM, respectively.
In the case of `O=C(C1CC1)N1CC2CNCC2C1` (stereo unspecified), the Emax was 130% in experiment [1] and 110% in [9]. Besides, the Ki amounted to 0.67 µM in experiment [2], 0.84 µM in [3], 0.004 µM in experiment [4] and 0.007 µM in experiment [8]. For the same molecule, the figures for the EC50 in experiment [5] and in experiment [10] were 4.9 µM and 0.47 µM, respectively.
